One series relates to DENV2 NGC strain. As to the kind of experiment: Cytopathic effect (CPE) inhibition assay. Type of series: cell-based, Dengue virus (DENV2). The following applies: for IC50: BHK-21 cells, DENV2 NGC strain, mean ± SD of two individual experiments, read-out: DENV-NGC-IC50; for SI (Selectivity Index): ratio of CC50 to IC50. Here is the method: The antiviral activities of the nine synthesized compounds against DENV were assessed using the DENV2 NGC strain and BHK-21 cells via CPE inhibition assays. BCX4430, NITD008, and 27 were used as positive controls (Figure S2). […] The activity of compound SW-d was higher than that of BCX4430 and lower than that of NITD008; however, its SI was higher than those of BCX4430 and NITD008.
In cell-based antiviral assays, the DENV2 NGC strain (Sino Biological Inc., Beijing, China) and BHK-21 cells (Baby hamster kidney cell line; ATCC CCL10) were used. The viral stock was prepared by inoculating C6/36 cells (Aedes albopictus clone C6/36; ATCC CRL166) as described previously. […] The supernatant was cleared by centrifugation at 2000 g for 5 min to remove cell debris and adjusted to 20% FBS. Aliquots of the virus were stored at […]. The 50% tissue culture infective dose (TCID50) was determined using the Promega Viral ToxGlo assay (Fisher Scientific, Ottawa, ON, Canada) in BHK-21 cells, according to the manufacturer’s instructions. Cell-based assays for the evaluation of antiviral activity against DENV were performed as described previously with modifications, using the Viral ToxGlo assay (Fisher Scientific, Ottawa, ON, Canada) according to the manufacturer’s instructions. Briefly, BHK-21 cells were plated in 96-well plates at 2500 cells/well in Dulbecco’s modified Eagle’s medium (DMEM) containing 10% FBS and 1% penicillin-streptomycin. Cells were incubated at 37 °C overnight and infected with 100 TCID50 of DENV for 90 min. The medium was replaced with DMEM containing 2.5% FBS and varying concentrations of the test compounds. Cell cultures were maintained at 37 °C in a 5% CO2 incubator for 3 days. The Viral Tox reagent was freshly prepared, and 100 μL of the reagent was added to each well. The plates were incubated for at least 10 min and then quantified using a 1450 MicroBeta TriLux microplate scintillation and luminescence counter (PerkinElmer, Waltham, MA, USA). For the off-target cytotoxicity assay, the test compounds were processed as described above, except without DENV infection of the cells. The luminescence readings were plotted against the log transformation of the concentration of the compound. Data were analyzed by nonlinear regression using GraphPad Prism 5.0 software (GraphPad Software, San Diego, CA, USA).
Background: Damage to the host cells serves as the signal in cytopathic effect assays.

The next series deals with DENV RdRp. The arrangement: method as in PMID 26984786, PMID 27500641. The following applies: against all clinically relevant dengue virus serotypes; cited from earlier work.
Another series in a line: Cytotoxicity assay. The format is cell-based. The following applies: dog.
For a further series, the target named is T1, DENV2 RdRp (Dengue virus type 2, UniProt P14340).
T1 construct: 100 nM of DENV2 full-length NS5 enzyme
In words: DENV biochemical enzyme assay. The following applies: mean ± SD of two individual experiments. Here is the method: The inhibitory activities of compounds SW-b and SW-d against DENV-2 RdRp were assessed using in vitro enzyme inhibition assays. Compounds 3′-dATP, BCX4430, and NITD008 were used as controls. […] This confirmed the reliability of the DENV2 RdRp inhibitory activity assay.
Additionally, it contained 20 μM ATP, 20 μM GTP, 20 μM UTP, 5 μM ATTO-CTP, and 100 nM of DENV2 full-length NS5 enzyme. These were all suspended in a solution consisting of 50 mM Tris/HCl at pH 7.5, 10 mM KCl, 1 mM MgCl2, 0.3 mM MnCl2, 0.001% Triton-X-100, and 10 μM cysteine. Five compounds, with concentrations ranging from 0 to 20 or 100 μM, were serially diluted 2-fold into 384-well white opaque plates (Corning Costar, New York, NY, USA), resulting in a final volume of 5 μL. Subsequently, 5 μL of the enzyme in a 1× assay buffer was added to their respective wells. The plate was incubated at room temperature for 15 min, after which 5 μL of a mixture containing RNA and NTPs was introduced to initiate the reactions. After a reaction time of 120 min, the process was terminated by adding 10 μL of a 2.5× STOP buffer, comprising 200 mM NaCl, 25 mM MgCl2, and 1.5 M DEA adjusted to pH 10 using […]. Additionally, 25 nM of calf intestinal alkaline phosphatase (NEB) was introduced. The mixture was allowed to incubate at room temperature for an additional 60 min. To quantify the results, a Tecan Saffire II microplate reader was employed, with excitation max and emission max wavelengths set at 422 nm and 566 nm, respectively. All data points were analyzed in duplicate wells. Finally, the IC50 values were determined using a nonlinear regression curve fit for a sigmoidal dose–response (variable slope) in GraphPad Prism version 3.02 (GraphPad Prism, Inc., San Diego, CA).

The next series relates to MDCK cells. In words: Cytotoxicity assay. The format is cell-based. The following applies: cytotoxicity, MDCK cells.
Where [1] appears, read: Dengue virus, DENV2, BHK-21, CPE inhibition.

“And” between values parts separate entries of the source, which are not always exact repeats. Equal entries are not always repeated. Where two headings read alike, the source gives them in different places.

One may read the IC50 as the concentration at which inhibition is half-maximal. A word on the CC50: it is the concentration that lowers cell viability or growth by half.

Regarding `COc1cc(C)c(C(=O)NS(=O)(=O)c2cccc3cccnc23)cc1-c1ccc(C#CCO)s1` [Compound 27, reference compound], the IC50 is 19.7 ± 1.12 µM in the series with DENV2 NGC strain (setting [1]) and 0.013 to 0.074 µM in the series on DENV RdRp.

Regarding `COc1cc(C)c(S(=O)(=O)NC(=O)c2ccc(C)c(Nc3nc(C)nc4c3CCC4)c2)cc1-c1ccc(C#CCO)s1` [SW-d], the IC50 was 23.9 ± 1 µM in the series on DENV2 NGC strain (setting [1]) and 13.5 ± 0.32 µM against DENV2 RdRp. The “SI (Selectivity Index)” value with DENV2 NGC strain is 5.58. The compound further gave a CC50 at 3 days in “Cytotoxicity assay” of 134 µM. Consider `COc1cc(C)c(S(=O)(=O)NC(=O)c2ccc(C)s2)cc1-c1ccc(C#CCO)s1` [SW-g], for which the IC50 in the series on DENV2 NGC strain (setting [1]) was over 200 µM. As to `COc1cc(C)c(S(=O)(=O)NC(=O)c2ccc3c(c2)C(=O)N(c2cccc(C)c2)C3=O)cc1-c1ccc(C#CCO)s1` [SW-f], the half-inhibitory concentration (IC50) with DENV2 NGC strain (setting [1]) came out at 53.8 ± 4.53 µM. Further, the “SI (Selectivity Index)” value with DENV2 NGC strain is over 3.72. The CC50 at 3 days in the series “Cytotoxicity assay” was over 200 µM. On to `C#C[C@@]1(O)[C@H](O)[C@@H](CO)O[C@H]1n1ccc2c(N)ncnc21` [NITD008, reference compound], for which the IC50 in the series on DENV2 NGC strain (CPE inhibition) was 41.6 µM and 15.5 µM. In the series on MDCK cells, this compound yielded a CC50 of 20 µM. With `COc1cc(C)c(S(=O)(=O)NC(=O)C(C)Oc2ccc3c4c(c(=O)oc3c2)CCCC4)cc1-c1ccc(C#CCO)s1` (stereo not drawn) [SW-b], the IC50 with DENV2 NGC strain (setting [1]) amounted to 3.58 ± 0.29 µM; against DENV2 RdRp, 11.5 ± 1.3 µM. Moreover, the “SI (Selectivity Index)” value in the series on DENV2 NGC strain was found to be 6.89. For the same compound, in “Cytotoxicity assay”, half-maximal cytotoxicity (CC50 at 3 days) was put at 24.7 µM. For the compound `COc1cccc(S(=O)(=O)NC(=O)c2cc(-c3ccc(C#CCO)s3)c(OC)cc2OC)c1` [Compound 29], in the series with DENV RdRp, the IC50 is 0.048 to 0.172 µM.

In turn, `Nc1ncnc2c1ncn2[C@@H]1O[C@H](COP(=O)(O)OP(=O)(O)OP(=O)(O)O)C[C@H]1O` [3′-dATP, reference compound] gave an IC50 on DENV2 RdRp of 30.1 ± 8.26 µM.

In the case of `COc1cc(C)c(S(=O)(=O)NC(=O)c2ccc(-n3c(C)ccc3C)cc2)cc1-c1ccc(C#CCO)s1` [SW-c], in the series on DENV2 NGC strain (setting [1]), the concentration for half-maximal inhibition (IC50) came to 41.5 ± 1.37 µM. In the series “Cytotoxicity assay”, this compound came in with a CC50 at 3 days of over 200 µM.

As for `COc1cc(C)c(S(=O)(=O)NC(=O)c2ccncn2)cc1-c1ccc(C#CCO)s1` [SW-h], the IC50 in the series on DENV2 NGC strain (setting [1]) was over 200 µM.

Take `Nc1ncnc2c([C@@H]3N[C@H](CO)[C@@H](O)[C@H]3O)c[nH]c12` [BCX4430, reference compound]: in the series with DENV2 NGC strain, the “SI (Selectivity Index)” value is given as 2.40. Besides, it took 100 µM to reach half-maximal cytotoxicity in the series “Cytotoxicity assay” (CC50 at 3 days). Take `COc1cc(C)c(S(=O)(=O)NC(=O)C2CC(=O)N(c3ccc(Cl)c(Cl)c3)C2)cc1-c1ccc(C#CCO)s1` (stereo not drawn) [SW-e]: in the series with DENV2 NGC strain (setting [1]), the IC50 is over 200 µM. The CC50 at 3 days in the series “Cytotoxicity assay” is 69.9 µM. `COc1cccc(C(=O)NS(=O)(=O)c2cc(-c3ccc(C#CCO)s3)c(OC)cc2C)c1` [SW-a]: in the series on DENV2 NGC strain (setting [1]), the IC50 worked out at 57.6 ± 2.37 µM. Consider `COc1cc(C)c(S(=O)(=O)NC(=O)Cn2nc(C)cc2C)cc1-c1ccc(C#CCO)s1` [SW-i], for which the IC50 with DENV2 NGC strain (setting [1]) was over 200 µM.
